Experiments:
Test in all cases: relative viability (nuclei count vs DMSO), 5 days (fraction); higher = more cells survive
Sunitinib + Foretinib = compound: CCN(CC)CCNC(=O)c1c(C)[nH]c(/C=C2\C(=O)Nc3ccc(F)cc32)c1C [Sunitinib] + COc1cc2c(Oc3ccc(NC(=O)C4(C(=O)Nc5ccc(F)cc5)CC4)cc3F)ccnc2cc1OCCCN1CCOCC1 [Foretinib] (partner 0.25 µM)
In short: (§1)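 Relative viability is defined as nuclei in treated wells over nuclei in vehicle wells. Duplicate plates were run and medians reported. Lung cancer cell lines in 1536-well plates were dosed by pin tool one day after seeding, with one drug or with a fixed anchor-drug dose plus five library-drug doses (not always all listed) in √10 steps, and nuclei were counted after 5 days.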

Sunitinib + AZD7762 = compound: CCN(CC)CCNC(=O)c1c(C)[nH]c(/C=C2\C(=O)Nc3ccc(F)cc32)c1C [Sunitinib] + NC(=O)Nc1cc(-c2cccc(F)c2)sc1C(=O)N[C@H]1CCCNC1 [AZD7762] (partner 0.2 µM)
In short: as §1

Sunitinib + Tozasertib = compound: CCN(CC)CCNC(=O)c1c(C)[nH]c(/C=C2\C(=O)Nc3ccc(F)cc32)c1C [Sunitinib] + Cc1cc(Nc2cc(N3CCN(C)CC3)nc(Sc3ccc(NC(=O)C4CC4)cc3)n2)n[nH]1 [Tozasertib] (partner 0.1 µM)
In short: as §1

Sunitinib + Luminespib = compound: CCN(CC)CCNC(=O)c1c(C)[nH]c(/C=C2\C(=O)Nc3ccc(F)cc32)c1C [Sunitinib] + CCNC(=O)c1noc(-c2cc(C(C)C)c(O)cc2O)c1-c1ccc(CN2CCOCC2)cc1 [Luminespib] (partner 0.01 µM)
In short: as §1

Cell Line	relative viability (Sunitinib + Foretinib; first compound 0.06325 µM)	relative viability (Sunitinib + Foretinib; first compound 0.2 µM)	relative viability (Sunitinib + Foretinib; first compound 0.6325 µM)	relative viability (Sunitinib + Foretinib; first compound 2 µM)	relative viability (Sunitinib + AZD7762; first compound 0.02 µM)	relative viability (Sunitinib + AZD7762; first compound 0.06325 µM)	relative viability (Sunitinib + AZD7762; first compound 0.2 µM)	relative viability (Sunitinib + AZD7762; first compound 0.6325 µM)	relative viability (Sunitinib + AZD7762; first compound 2 µM)	relative viability (Sunitinib + Tozasertib; first compound 0.02 µM)	relative viability (Sunitinib + Tozasertib; first compound 0.06325 µM)	relative viability (Sunitinib + Tozasertib; first compound 0.2 µM)	relative viability (Sunitinib + Tozasertib; first compound 0.6325 µM)	relative viability (Sunitinib + Tozasertib; first compound 2 µM)	relative viability (Sunitinib + Luminespib; first compound 0.02 µM)	relative viability (Sunitinib + Luminespib; first compound 0.06325 µM)	relative viability (Sunitinib + Luminespib; first compound 0.2 µM)	relative viability (Sunitinib + Luminespib; first compound 0.6325 µM)	relative viability (Sunitinib + Luminespib; first compound 2 µM)	relative viability (Sunitinib + Foretinib; first compound 0.02 µM)
NCI-H647	1.03	1.34	1.13	1.21	0.482	0.48	0.546	0.642	0.469	0.344	0.294	0.262	0.345	0.309	0.232	0.143	0.131	0.137	0.154	
NCI-H650	1.01	1.06	1.11	0.975	0.882	1.15	0.945	1.1	0.944	0.697	0.831	0.771	0.801	0.745	0.914	0.83	0.766	0.803	0.716	1.03
NCI-H727	0.837	1.12	0.979	0.788	0.652	0.575	0.554	0.612	0.618	0.603	0.686	0.565	0.658	0.529	0.429	0.498	0.456	0.457	0.313	0.926
NCI-H838	1	1.14	1.08	0.826	0.956	0.907	1.01	0.993	0.884	0.301	0.311	0.314	0.266	0.246	0.351	0.328	0.301	0.261	0.234	1.04
NCI-H1355	0.802			0.68	0.764	0.845	0.859	0.767	0.689	0.529	0.561	0.601	0.594	0.406	0.723	0.735	0.718	0.712	0.719	0.957
NCI-H1395	0.996	1.05	1	1.14	0.422	0.431	0.413	0.418	0.421	0.751	0.72	0.696	0.846	0.779	0.72	0.375	0.723	0.706	0.602	0.955
NCI-H1437	1.25	1.28	1.22	1.32	1.09	1.14	1.15	1.13	1.07	0.391	0.302	0.408	0.39	0.41	1.03	1.12	1.23	1.12	1.17	1.24
NCI-H1651	0.843	0.877	0.826	0.806	0.462	0.478	0.451	0.441	0.449	0.618	0.687	0.787	0.584	0.548	0.758	0.766	1.06	0.942	1.14	0.762
NCI-H1666	1	1.05	1.04	1.01	0.782	1.02	0.907	0.895	0.886	0.676	0.685	0.719	0.655	0.71	0.983		1.07	1.07	1.12	0.912
NCI-H1734	0.896	0.966		0.752	0.436	0.592	0.635	0.543	0.518	0.265	0.262	0.25	0.325	0.247	0.166	0.186	0.188	0.149	0.212	0.815
NCI-H1755	0.897	0.959	0.981	0.936	0.414	0.478	0.53	0.408	0.421	0.561	0.529	0.752	0.593	0.569	0.435	0.497	0.499	0.441	0.334	0.891
NCI-H1793	0.675	0.753	0.723	0.593		0.448	0.44	0.377	0.334	0.413	0.34	0.351	0.281	0.214	0.19	0.166	0.165	0.191	0.166	0.649
NCI-H1915	1.11	1.14	1.13	1.15	0.678	0.741	0.601	0.749	0.75	0.415	0.418	0.46	0.453	0.465	0.5	0.846	0.822	0.869	0.83	1.07
NCI-H1944	1	0.962	0.944	0.863	0.435	0.481	0.656	0.63	0.506	0.229	0.283	0.283	0.255	0.258	0.738	0.722	0.752	0.769	0.638	0.738
NCI-H1975	1.03	1.07	1.01	1.01	0.748	0.679	0.723	0.705	0.579	0.705	0.67	0.717	0.318	0.186	0.278	0.185	0.185	0.173	0.172	0.899
NCI-H1993	0.691	0.789	0.685	0.73	0.723	0.757	0.782	0.761	0.845	0.527	0.581	0.678	0.605	0.586	0.741	0.941	0.866	0.654	0.79	0.746
NCI-H2085		1.02	0.957	0.935	0.965	0.976	1.12	1.07	1	0.863	0.835	1.02	0.747	0.605	0.494	0.399	0.489	0.46	0.377	0.851
NCI-H2087	1.28	1.15	1.07	1.11	1.21	1.42	1.34	1.41	1.46	0.253	0.259	0.329	0.284	0.233	0.195	0.172	0.166	0.158	0.174	1.12
NCI-H2126	1.31	1.34	1.47	1.31	0.937	1.07	1.21	1.03	1.02	0.846	0.852	0.963	0.92	0.81	0.875	0.918	0.897	0.985	0.866	1.13
NCI-H2170	1.01	1.05	1.01	0.843	0.797	0.876	0.955	0.87	0.772	0.771	0.961	0.715	0.808	0.838	0.642	0.586	0.729	0.686	0.565	0.987
NCI-H2342	1.17	1.15	1.18	1.16	0.48	0.601	0.649	0.505	0.556	0.396	0.616	0.539	0.56	0.453	0.658	0.67	0.868	0.778	0.838	0.901
NCI-H2347	0.708	1.03		1.36	0.709	0.844	0.813	0.838	0.871	0.599	0.481	0.59	0.607	0.523	0.486	0.355	0.377	0.238	0.558	0.704
NCI-H2405	1.06	1.09	1.05	1.11	0.703	0.759	0.8	0.878	0.648	0.757	0.794	0.811	0.761	0.809	0.672	0.616	0.854	0.947	0.722	1.07
NCI-H3122	0.963	1.04	0.976	0.97	0.933	1.08	1.01	0.999	1.01	0.429	0.475	0.539	0.433	0.567	0.0868	0.127	0.0866	0.0951	0.0797	0.904
PC-3 [JPC-3]	1.05	1.12	1.02	1.01	0.844	0.79	0.845	0.827	0.865	0.912	0.909	0.954	0.936	0.867	0.681	0.672	0.755	0.762	0.692	
PC-14	0.939	1.08	1	0.874	0.374	0.442	0.387	0.319	0.348	0.53	0.589	0.583	0.578	0.523	0.18	0.121	0.201	0.144	0.216	0.942
RERF-LC-KJ	0.907	0.903	0.87	0.919	0.959	1.05	1.04	0.932	1	0.508	0.487	0.547	0.47	0.541	1.02	1.25	1.35	1.4	1.14	0.873
SW 900	0.934	0.865	0.966	0.834	0.633	0.676	0.664	0.67	0.648	0.432	0.58	0.648	0.525	0.328	0.183	0.22	0.172	0.192	0.194	0.834

Source: the supplement of paper PMC10307832
